Legend:
T29 = experiment: Cell growth / multiplication (viable cell number); assay type: cell-based, murine; conditions: for % Growth inhibition After 3 days: T29, N6 or N7 20 μM, viable cell number vs untreated control, mean of at least 2 independent experiments; for IC50: T29 cells, 0-20 μM, number of viable cells at 3 days post-treatment, read-out: Cell number: IC50 72 hours post-passage; for multiplication index of cells at day 3 compared to day 0: T29 seeded at 150,000 cells/ml, 10 μM (hexavalent), triplicate, control 17.5-fold
Protocol: Human breast (MDA-MB-231, MDA-MB-435 [37]), prostate (LNCaP, from American Type Culture Collection, ATCC, Rockville, MD), and cervical (HeLa) epithelial cancer cells were grown in DMEM-glutamax medium (Gibco Invitrogen, Cergy-Pontoise, France) containing GlutaMAX™, 4.5 g/l glucose and supplemented with 10% heat-inactivated (56°C for 30 min) fetal bovine serum (FBS; Hyclone, Thermo Fisher Scientific, Inc). Human SW480 cells are derived from a grade 3-4 colon carcinoma, while the highly metastatic counterpart SW620 is established from the lymph node of a person. Both SW480 and SW620 cells (obtained from Francis Raul, IRCAD) are highly tumorigenic in nude mice. They were cultured in D-MEM, 10% FCS. The murine melanoma TIII cell line was obtained from Armelle Prévost-Blondel. Murine T29 lymphoma cells, obtained from Philippe Kastner (CNRS, Strasbourg), have been established from Ik^L/L tumors from mice carrying a hypomorphic mutation (Ik^L/L) in the Ikaros gene encoding a transcription factor that regulates lymphocyte differentiation, and acts also as a tumor suppressor in T lymphocytes. The T29 cells were cultured in RPMI medium containing 25 mM Hepes pH 7.6, 1 mM sodium pyruvate, and 10% FCS. Human leukemia cell lines, Jurkat (acute T cell leukemia), HuT 78 (cutaneous T lymphocyte), RAJI (Burkitt lymphoma), and HL60 (promyelocytic leukemia) were cultured in RPMI-1640 medium (Gibco) containing GlutaMAX™, and supplemented with 10% heat-inactivated FBS as described before. The wild-type Chinese hamster ovary cell line (CHO K1) was purchased from American Type Culture Collection (ATCC; Rockville, MD). The CHO LRP1-null cell line (CHO-13-5-1) was kindly provided by D. Strickland [47]. They were cultured in Ham's F12K medium. All cells were cultured with 10% (v/v) heat inactivated (56°C, 30 min) fetal bovine serum (FBS) (Roche Molecular Biochemicals, Indianapolis, IN) and 50 international units/mL penicillin-streptomycin (Invitrogen). Cell death was monitored conveniently by uptake of the trypan blue dye due to plasma membrane permeability of dying and/or dead cells.
Figure 7 HB-19 and related multivalent Nucant pseudopeptides induce cell death associated with internucleosomal DNA fragmentation. A. Inhibition of cell multiplication by HB-19 and related multivalent Nucant pseudopeptides. […] Cell cultures (in triplicate) were monitored for viable cell number daily for 3 days. The histograms show the mean number of cells/ml ± SD of triplicate samples. The multiplication index of cells at day 3 compared to day 0 (the day of seeding) is given at the top of histogram. At 3 days post passage of T29 cells, the cell multiplication index of cells is 17.5-fold compared to 8.9-, 7.2-, 2.2-, and 1.7-fold in the presence of treatment with HB-19, N3, N6, and N7, respectively. B. N7 inhibits T29 cell multiplication in a dose dependent manner. T29 cells seeded at 100,000/ml in 2 ml in the absence (0 μM) or presence of N7 at various concentrations 2.5, 5, 10 and 20 μM were cultured for 3 days and the number of viable cells was determined at day 1, 2, and 3 post-seeding. The ordinate gives the cell number/ml (the mean of 2 samples) in each culture at day 1, 2, and 3 post-seeding. C. Partial cleavage of surface/cytoplasmic nucleolin. T29 cells were cultured for 45 min with 0 (for control; lanes C), 2 and 10 μM of N6 before preparation of cytoplasmic (that contains both surface and cytoplasmic nucleolin) and nuclear extract and analysis by immunoblotting using rabbit polyclonal antibodies that are directed against the first 26 (panel anti-Nt Ab) and the last 16 amino acids (panel anti-Ct Ab) of human nucleolin, respectively. The nuclear extracts were analyzed by immunoblotting using anti-Nt Ab (Methods). […]

LNCaP = experiment: Cell adhesion to plastic culture flask; assay type: cell-based, human; conditions: 10 μM, adherent cells counted after 16 hours of culture
Source text: (§1) A. Inhibition of Cell adhesion by N6. […] C. The effect of Nucant treatment on cell proliferation. […] The ordinates give the mean ± SD of triplicate samples. Statistical significance: **p < 0.01, ***p < 0.001.

MDA-MB-231 = experiment: Cell adhesion to plastic culture flask; assay type: cell-based, human; conditions: MDA-MB-231, 10 μM, adherent cells counted after 16 hours of culture
Source text: as §1

MDA-MB-435 = experiment: Cell adhesion to plastic culture flask; assay type: cell-based, human; conditions: MDA-MB-435, 10 μM, adherent cells counted after 16 hours of culture
Source text: as §1

## Ac-KAKPGKAKPGKAKPG-NH2 [Nucant N7, Presents hexavalently the pseudo-tripeptide Lysψ(CH2N)-Pro-Arg coupled to a similar template as in HB-19]
T29
  % Growth inhibition After 3 days: 85%
  IC50: 8 µM
  multiplication index of cells at day 3 compared to day 0: 1.7 fold

## Ac-Lys-Aib-Gly-Lys-Aib-Gly-Lys-Aib-Gly-Lys-Aib-Gly-Lys-Aib-Gly-Lys-Aib-Gly-CONH2 [Nucant N6, Presents hexavalently the pseudo-tripeptide Lysψ(CH2N)-Pro-Arg coupled to the polypeptide template containing Aib]
LNCaP
  degree of adhesion inhibition: 66%
MDA-MB-231
  degree of adhesion inhibition: 58%
MDA-MB-435
  degree of adhesion inhibition: 41%
T29
  % Growth inhibition After 3 days: 85%
  IC50: 8 µM
  multiplication index of cells at day 3 compared to day 0: 2.2 fold
